Laboratory results reported in patent US10464883B2, “Compounds and methods for the treatment of neurodegenerative diseases” (Resilio Therapeutics, LLC, priority 2015, dated 2019).

Test: pH stability of prodrugs of DFMO in PBS buffer (LC/MS/MS)
Assay type: physicochemical
Experimental: The stability of prodrugs of DFMO to different pH conditions over time was assayed. Prodrugs were reconstituted in dimethylsulfoxide (DMSO), diluted into phosphate buffered saline (PBS) of different pH values, incubated for different lengths of time at room temperature, and then analyzed by LC/MS/MS for changes in the levels of each prodrug. […] Following this initial phase, the (2)-prodrug was reasonably stable over the next 24 hours so that less than 20% of the intact prodrug was lost at pH 3 and 5, and about 60% of the intact material was lost at pH 8 over a day. […] Similar results were obtained with the other prodrugs tested.

- intact prodrug lost over the next 24 hours (PBS pH 3, room temperature, 24 hours following initial phase): less than 20%
- decrease in the amount of intact, non-degraded prodrug over the first hour of incubation (PBS pH 3, room temperature): about 60%
- intact prodrug lost over the next 24 hours (PBS pH 5, room temperature, 24 hours following initial phase): less than 20%
- decrease in the amount of intact, non-degraded prodrug over the first hour of incubation (PBS pH 5, room temperature): 30-35%
- intact material lost over a day (PBS pH 8, room temperature, 24 hours following initial phase): about 60%
- decrease in the amount of intact, non-degraded prodrug over the first hour of incubation (PBS pH 8, room temperature): 30-35%
Compound: CC(OC(=O)NCCCC(N)(C(=O)O)C(F)F)OC(=O)C(C)C (stereo not drawn) [(2)-prodrug, 2-amino-2-(difluoromethyl)-5-[1-(2-methylpropanoyloxy)ethoxycarbonylamino]pentanoic acid]
